Measurements published in article PMC8113490, “Androgen signaling uses a writer and a reader of ADP-ribosylation to regulate protein complex assembly” (Nature Communications, 2021).

Assays:
Parp7 = molecular target: T1, Parp7 (Homo sapiens, UniProt Q7Z3E1); assay: in vitro ADP-ribosylation of AR and automodification with recombinant Parp7 and NAD+; type: biochemical
T1 construct: gene TIPARP; N-terminal His6-T7-tagged Parp7 expressed in Sf21 insect cells
T1 sequence (Q7Z3E1 1-657): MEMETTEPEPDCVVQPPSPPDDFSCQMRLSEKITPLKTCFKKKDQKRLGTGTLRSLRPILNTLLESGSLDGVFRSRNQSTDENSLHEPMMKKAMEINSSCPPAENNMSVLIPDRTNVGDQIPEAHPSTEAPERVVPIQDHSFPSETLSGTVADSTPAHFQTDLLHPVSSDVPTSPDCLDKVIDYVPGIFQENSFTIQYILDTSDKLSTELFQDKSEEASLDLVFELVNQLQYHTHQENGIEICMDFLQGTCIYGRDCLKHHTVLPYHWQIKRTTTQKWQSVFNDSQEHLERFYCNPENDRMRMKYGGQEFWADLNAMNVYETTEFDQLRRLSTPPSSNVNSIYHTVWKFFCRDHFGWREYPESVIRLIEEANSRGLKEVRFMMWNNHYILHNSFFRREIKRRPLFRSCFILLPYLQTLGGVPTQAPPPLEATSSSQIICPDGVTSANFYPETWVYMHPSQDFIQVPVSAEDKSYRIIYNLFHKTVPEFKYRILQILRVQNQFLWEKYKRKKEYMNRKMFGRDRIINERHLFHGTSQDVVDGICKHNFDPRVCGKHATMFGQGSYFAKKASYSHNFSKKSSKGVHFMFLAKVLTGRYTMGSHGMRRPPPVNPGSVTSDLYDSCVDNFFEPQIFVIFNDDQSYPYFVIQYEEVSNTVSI

[1] = molecular target: Flag-AR 4CG (C125, 290, 327, 406G) (human) (UniProt P10275); assay: co-IP; AR IP from PC3M/HA-Parp7 cells stably expressing Flag-tagged WT AR or Cys-to-Gly mutants, treated +R1881; probed for AR, ADP-ribosylation, Dtx3L and Parp9
Sequence of Flag-AR 4CG (C125, 290, 327, 406G) (human) (P10275 whole entry C125G/C290G/C327G/C406G): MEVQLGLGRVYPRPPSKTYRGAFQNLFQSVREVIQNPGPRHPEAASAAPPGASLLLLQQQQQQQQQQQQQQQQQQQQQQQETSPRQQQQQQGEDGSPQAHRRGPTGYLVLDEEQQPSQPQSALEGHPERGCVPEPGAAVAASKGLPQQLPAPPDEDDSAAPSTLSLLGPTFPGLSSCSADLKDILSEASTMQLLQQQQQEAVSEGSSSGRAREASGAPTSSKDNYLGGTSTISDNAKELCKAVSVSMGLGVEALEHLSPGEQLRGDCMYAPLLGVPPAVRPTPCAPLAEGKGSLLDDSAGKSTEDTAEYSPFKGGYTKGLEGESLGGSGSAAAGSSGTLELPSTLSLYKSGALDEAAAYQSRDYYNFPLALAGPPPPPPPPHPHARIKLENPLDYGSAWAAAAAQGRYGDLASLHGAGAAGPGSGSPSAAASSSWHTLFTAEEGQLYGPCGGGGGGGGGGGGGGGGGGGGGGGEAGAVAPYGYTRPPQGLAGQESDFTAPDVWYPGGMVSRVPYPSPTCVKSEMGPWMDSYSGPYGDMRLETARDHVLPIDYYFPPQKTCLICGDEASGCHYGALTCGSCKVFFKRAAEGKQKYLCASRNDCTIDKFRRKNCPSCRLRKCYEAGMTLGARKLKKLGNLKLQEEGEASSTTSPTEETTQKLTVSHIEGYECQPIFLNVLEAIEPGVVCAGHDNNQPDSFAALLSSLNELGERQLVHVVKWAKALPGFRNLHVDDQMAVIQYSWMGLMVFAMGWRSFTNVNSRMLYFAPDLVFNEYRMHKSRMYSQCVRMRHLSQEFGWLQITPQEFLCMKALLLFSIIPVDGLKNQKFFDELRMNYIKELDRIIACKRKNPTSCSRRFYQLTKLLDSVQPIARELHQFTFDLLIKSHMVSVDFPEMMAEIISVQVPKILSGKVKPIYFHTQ

| complex formation, percent of WT [1] | Compound | in vitro ADP-ribosylation of AR and automodification with recombinant Parp7 and (Parp7) |
| --- | --- | --- |
|  | NC(=O)c1ccc[n+]([C@@H]2O[C@H](COP(=O)([O-])OP(=O)(O)OC[C@H]3O[C@@H](n4cnc5c(N)ncnc54)[C@H](O)[C@@H]3O)[C@@H](O)[C@H]2O)c1 [NAD^+] | Combining recombinant Parp7, NAD^+, and bead-immobilized AR reconstituted ADP-ribosylation |
| 50 % of WT | Parp9 (enzyme) |  |
